Results: patent US11485742B2, “2-azaspiro[3.4]octane derivatives as M4 agonists” (NOVARTIS AG, priority 2019, dated 2022)

Key:
[1] = biological target: T1, human cloned CHRM3 receptor (Homo sapiens, UniProt P20309); experiment: CHRM3 Ca++ Flux Assay (M3_CHO cells, agonist mode); format: cell-based; conditions: for Emax: Percent Activity (PA) measured to EC100 of Carbachol, read-out: M3 FDSS PA %; for EC50: agonist mode, geometric mean if tested more than once, read-out: M3 FDSS EC50
T1 construct: expressed in transfected cells; host or cells: CHO-K1 (M3_CHO)
T1 sequence (P20309 whole entry): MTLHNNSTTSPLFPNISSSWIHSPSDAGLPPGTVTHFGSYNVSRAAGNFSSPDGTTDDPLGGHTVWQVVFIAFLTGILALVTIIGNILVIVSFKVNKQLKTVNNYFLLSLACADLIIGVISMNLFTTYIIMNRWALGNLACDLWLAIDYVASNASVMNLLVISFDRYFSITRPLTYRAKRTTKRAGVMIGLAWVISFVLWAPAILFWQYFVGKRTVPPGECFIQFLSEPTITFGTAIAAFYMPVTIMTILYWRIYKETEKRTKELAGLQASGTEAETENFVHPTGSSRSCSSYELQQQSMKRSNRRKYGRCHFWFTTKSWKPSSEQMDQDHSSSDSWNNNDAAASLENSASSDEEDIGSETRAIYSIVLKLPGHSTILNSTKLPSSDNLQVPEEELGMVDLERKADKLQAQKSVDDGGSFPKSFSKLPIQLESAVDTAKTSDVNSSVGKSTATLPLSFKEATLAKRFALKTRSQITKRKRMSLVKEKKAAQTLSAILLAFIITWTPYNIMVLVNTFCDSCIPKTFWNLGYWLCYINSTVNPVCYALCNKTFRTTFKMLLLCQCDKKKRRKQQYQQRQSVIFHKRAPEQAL
In short: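 Agonist-mode calcium mobilisation: compounds, 11 concentrations in triplicate, applied to stable M3_CHO or M5_CHO cells loaded with Ca++ dye, fluorescence followed 3 min. Efficacy expressed against carbachol EC100; EC curves by four-parameter nonlinear regression, geometric mean across independent runs.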

[2] = biological target: T2, Cloned human M1 receptor (CHRM1) (Homo sapiens, UniProt P11229); experiment: CHRM1 Ca++ Flux Assay (HEK293 M1 cells, agonist mode); format: cell-based; conditions: for Emax: Percent Activity (PA), read-out: M1 FDSS PA %; for EC50: geometric mean if tested more than once, read-out: M1 FDSS EC50
T2 construct: expressed in transfected cells; host or cells: HEK293
T2 sequence (P11229 1-460): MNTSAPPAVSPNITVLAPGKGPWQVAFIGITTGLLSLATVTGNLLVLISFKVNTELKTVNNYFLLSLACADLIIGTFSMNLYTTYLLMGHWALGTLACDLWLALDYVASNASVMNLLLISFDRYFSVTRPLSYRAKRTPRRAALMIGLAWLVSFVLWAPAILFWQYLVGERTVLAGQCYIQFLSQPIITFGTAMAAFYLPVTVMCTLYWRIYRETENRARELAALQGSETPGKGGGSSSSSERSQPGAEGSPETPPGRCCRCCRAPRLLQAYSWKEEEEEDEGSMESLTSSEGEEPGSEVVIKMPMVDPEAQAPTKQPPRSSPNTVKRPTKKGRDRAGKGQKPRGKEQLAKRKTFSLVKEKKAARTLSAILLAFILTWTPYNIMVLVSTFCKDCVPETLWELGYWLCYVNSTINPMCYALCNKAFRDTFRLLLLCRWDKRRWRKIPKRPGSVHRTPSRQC
In short: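 In agonist mode, compound-induced intracellular Ca++ mobilization was recorded for 3 min by fluorescent imager. The cells were HEK293 stably expressing cloned human CHRM1, in Ca/Mg-free HBSS with 20 mM HEPES. Triplicate 11-point dose-responses were fitted by four-parameter regression and normalized to the carbachol EC100 response.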

SMILES	Emax [1] [%]	EC50 [1] [nM]	Emax [2] [%]	EC50 [2] [nM]
Cc1cc(COc2ccc(F)cc2C2CCN([C@@H]3COC4(C3)CN(c3nnco3)C4)CC2)on1 [Example 2G, (S)-7-(4-(5-fluoro-2-((3-methylisoxazol-5-yl)methoxy)phenyl)piperidin-1-yl)-2-(1,3,4-oxadiazol-2-yl)-5-oxa-2-azaspiro[3.4]octane]	0	> 25000	89	289
COc1ccccc1C1CCN([C@@H]2COC3(C2)CN(c2nnco2)C3)CC1 [Example 1Q, (S)-7-(4-(2-methoxyphenyl)piperidin-1-yl)-2-(1,3,4-oxadiazol-2-yl)-5-oxa-2-azaspiro[3.4]octane]	0	> 25000	81	678
CC1(COc2ccc(F)cc2C2CCN([C@@H]3COC4(C3)CN(c3nncs3)C4)CC2)COC1 [Example 2B, (S)-7-(4-(5-fluoro-2-((3-methyloxetan-3-yl)methoxy)phenyl)piperidin-1-yl)-2-(1,3,4-thiadiazol-2-yl)-5-oxa-2-azaspiro[3.4]octane]	0	> 25000	91	1140
Fc1ccc(OCC2COC2)c(C2CCN([C@@H]3COC4(C3)CN(c3nnco3)C4)CC2)c1 [Example 2H, (S)-7-(4-(5-fluoro-2-(oxetan-3-ylmethoxy)phenyl)piperidin-1-yl)-2-(1,3,4-oxadiazol-2-yl)-5-oxa-2-azaspiro[3.4]octane]	0	> 25000	101	542
Fc1ccc(OC2CC3(COC3)C2)c(C2CCN([C@@H]3COC4(C3)CN(c3nnco3)C4)CC2)c1 [Example 2L, (S)-7-(4-(2-((2-oxaspiro[3.3]heptan-6-yl)oxy)-5-fluorophenyl)piperidin-1-yl)-2-(1,3,4-oxadiazol-2-yl)-5-oxa-2-azaspiro[3.4]octane]	0	> 25000	47	2220
CC(C)(O)COc1ccc(F)cc1C1CCN([C@@H]2COC3(C2)CN(c2nnco2)C3)CC1 [Example 1U, (S)-1-(2-(1-(2-(1,3,4-oxadiazol-2-yl)-5-oxa-2-azaspiro[3.4]octan-7-yl)piperidin-4-yl)-4-fluorophenoxy)-2-methylpropan-2-ol]	0	> 25000	75	961
Fc1ccc(OC2COC2)c(C2CCN([C@@H]3COC4(C3)CN(c3ncon3)C4)CC2)c1 [Example 6B, (S)-7-(4-(5-fluoro-2-(oxetan-3-yloxy)phenyl)piperidin-1-yl)-2-(1,2,4-oxadiazol-3-yl)-5-oxa-2-azaspiro[3.4]octane]	0	> 25000	88	490
OC1(COc2ccc(F)cc2C2CCN([C@@H]3COC4(C3)CN(c3nnco3)C4)CC2)COC1 [Example 2U, (S)-3-((2-(1-(2-(1,3,4-oxadiazol-2-yl)-5-oxa-2-azaspiro[3.4]octan-7-yl)piperidin-4-yl)-4-fluorophenoxy)methyl)oxetan-3-ol]	0	> 25000	81	223
Cc1nnc(COc2ccc(F)cc2C2CCN([C@@H]3COC4(C3)CN(c3nnco3)C4)CC2)o1 [Example 2F, (S)-7-(4-(5-fluoro-2-((5-methyl-1,3,4-oxadiazol-2-yl)methoxy)phenyl)piperidin-1-yl)-2-(1,3,4-oxadiazol-2-yl)-5-oxa-2-azaspiro[3.4]octane]	0	> 25000	103	61
c1ccc(C2CCN([C@@H]3COC4(C3)CN(c3nnco3)C4)CC2)c(O[C@@H]2CCOC2)c1 [Example 1O, (S)-2-(1,3,4-oxadiazol-2-yl)-7-(4-(2-(((R)-tetrahydrofuran-3-yl)oxy)phenyl)piperidin-1-yl)-5-oxa-2-azaspiro[3.4]octane]	0	> 25000	69	1350
Cc1nnc(-c2ccccc2C2CCN([C@@H]3COC4(C3)CN(c3nnco3)C4)CC2)o1 [Example 1Y, (S)-7-(4-(2-(5-methyl-1,3,4-oxadiazol-2-yl)phenyl)piperidin-1-yl)-2-(1,3,4-oxadiazol-2-yl)-5-oxa-2-azaspiro[3.4]octane]	0	> 25000	107	579
CC(C)(O)CCOc1ccc(F)cc1C1CCN([C@@H]2COC3(C2)CN(c2nnco2)C3)CC1 [Example 1N, (S)-4-(2-(1-(2-(1,3,4-oxadiazol-2-yl)-5-oxa-2-azaspiro[3.4]octan-7-yl)piperidin-4-yl)-4-fluorophenoxy)-2-methylbutan-2-ol]	0	> 25000	82	376
Fc1cc(O[C@@H]2CCOC2)c(C2CCN([C@@H]3COC4(C3)CN(c3nnco3)C4)CC2)cc1F [Example 1R, (S)-7-(4-(4,5-difluoro-2-(((R)-tetrahydrofuran-3-yl)oxy)phenyl)piperidin-1-yl)-2-(1,3,4-oxadiazol-2-yl)-5-oxa-2-azaspiro[3.4]octane]	0	> 25000	76	670
Cc1nnc(COc2ccc(F)cc2C2CCN([C@@H]3COC4(C3)CN(c3nnco3)C4)CC2)s1 [Example 2E, (S)-7-(4-(5-fluoro-2-((5-methyl-1,3,4-thiadiazol-2-yl)methoxy)phenyl)piperidin-1-yl)-2-(1,3,4-oxadiazol-2-yl)-5-oxa-2-azaspiro[3.4]octane]	0	> 25000	112	116
Fc1ccc(OCc2ncccn2)c(C2CCN([C@@H]3COC4(C3)CN(c3nnco3)C4)CC2)c1 [Example 2I, (S)-7-(4-(5-fluoro-2-(pyrimidin-2-ylmethoxy)phenyl)piperidin-1-yl)-2-(1,3,4-oxadiazol-2-yl)-5-oxa-2-azaspiro[3.4]octane]	0	> 25000	97	98
Fc1ccc(OC2CC3(COC3)C2)c(C2CCN([C@H]3COC4(C3)CN(c3nnco3)C4)CC2)c1 [Example 7A, (R)-7-(4-(2-((2-oxaspiro[3.3]heptan-6-yl)oxy)-5-fluorophenyl)piperidin-1-yl)-2-(1,3,4-oxadiazol-2-yl)-5-oxa-2-azaspiro[3.4]octane]	0	> 25000	0	> 25000
COc1ccc(F)cc1C1CCN([C@@H]2COC3(C2)CN(c2nnco2)C3)CC1 [Example 1V, (S)-7-(4-(5-fluoro-2-methoxyphenyl)piperidin-1-yl)-2-(1,3,4-oxadiazol-2-yl)-5-oxa-2-azaspiro[3.4]octane]	0	> 25000	76	663
CC(C)(O)CCOc1cc(F)ccc1C1CCN([C@@H]2COC3(C2)CN(c2nnco2)C3)CC1 [Example 1T, (S)-4-(2-(1-(2-(1,3,4-oxadiazol-2-yl)-5-oxa-2-azaspiro[3.4]octan-7-yl)piperidin-4-yl)-5-fluorophenoxy)-2-methylbutan-2-ol]	0	> 25000	74	640
CC(C)(O)CCOc1cc(F)ccc1C1CCN([C@@H]2COC3(C2)CN(c2nncs2)C3)CC1 [Example 5V, (S)-4-(2-(1-(2-(1,3,4-thiadiazol-2-yl)-5-oxa-2-azaspiro[3.4]octan-7-yl)piperidin-4-yl)-5-fluorophenoxy)-2-methylbutan-2-ol]	0	> 25000	79	786
Fc1ccc(OC2CCOCC2)c(C2CCN([C@@H]3COC4(C3)CN(c3ncon3)C4)CC2)c1 [Example 6A, (S)-7-(4-(5-fluoro-2-((tetrahydro-2H-pyran-4-yl)oxy)phenyl)piperidin-1-yl)-2-(1,2,4-oxadiazol-3-yl)-5-oxa-2-azaspiro[3.4]octane]	0	> 25000	53	887
Fc1ccc(OCC2CCOCC2)c(C2CCN([C@@H]3COC4(C3)CN(c3nnco3)C4)CC2)c1 [Example 1J, (S)-7-(4-(5-fluoro-2-((tetrahydro-2H-pyran-4-yl)methoxy)phenyl)piperidin-1-yl)-2-(1,3,4-oxadiazol-2-yl)-5-oxa-2-azaspiro[3.4]octane]	0	> 25000	73	4090
c1ccc(C2CCN([C@@H]3COC4(C3)CN(c3nnco3)C4)CC2)c(-c2ncco2)c1 [Example 1X, (S)-2-(1,3,4-oxadiazol-2-yl)-7-(4-(2-(oxazol-2-yl)phenyl)piperidin-1-yl)-5-oxa-2-azaspiro[3.4]octane]	0	> 25000	99	1230
